Data taken from patent publication US5140025A, “Thienotricylene for the treatment of bronchial diseases” (BYK Gulden Lomberg Chemische Fabrik GmbH, priority 1987, dated 1992).

What was measured:
[1] = test system: acetylcholine-induced asthma attacks; experiment: Acetylcholine-induced asthma attacks in the conscious guinea pig, oral administration; assay type: in vivo, guinea pig (Pirbright White); details: 30 min after administration; for Number of animals, latency period tripled (= protected): 10 animals used
Description: Effect of orally administered (±)-telenzepine on acetylcholine-induced asthma attacks in the conscious guinea pig
As described by R. Beume, U. Kilian, N. Kolassa, K. Mussler, Atemw.-Lungenkrkh., 11, 342-345, 1985 ("The testing of bronchospasmolytic substances in conscious guinea pigs").
Pirbright White, Interfauna (Tuttlingen), 250-450 g, male, 10 animals per dose and experiment.
Thoracographic measurement of the respiratory activity, measurement of the latency period from the beginning of acetylcholine nebulisation to the beginning of the asthma attack; determination of the number of animals for which, 30 minutes after administration, the latency period of the experimental attack has been at least tripled in relation to the control attack; estimation of the approximate ED50 from this.
0.1, 0.3, 1, 3, 10 and 30 μmol/kg (±)-telenzepine p.o. (in 4% Methocel, administered in 0.9% NaCl); acetylcholine 0.09% in 0.9% NaCl by inhalatin (ultrasonic nebulisation).
The number of animals for which there is at least a tripling of the latency period of the acetylcholine-induced experimental attack in comparison with the control attack as a function of the perorally administered (±)-telenzepine dose is expressed as follows: […]

M2 receptor (cardiac) = target: T1, M2 receptor (cardiac) (Rattus norvegicus, UniProt P10980); experiment: Receptor affinity, electrically stimulated left atrium of the rat; details: agonist carbachol, Schild slope normalised to 1.00, read-out: pA2 ± SEM, M2 receptor (cardiac) (converted)
T1 construct: isolated, left atria of rats (male 250-350 g); from tissue; host or cells: rat left atrium (isolated, male rats 250-350 g)
T1 sequence (P10980 1-466): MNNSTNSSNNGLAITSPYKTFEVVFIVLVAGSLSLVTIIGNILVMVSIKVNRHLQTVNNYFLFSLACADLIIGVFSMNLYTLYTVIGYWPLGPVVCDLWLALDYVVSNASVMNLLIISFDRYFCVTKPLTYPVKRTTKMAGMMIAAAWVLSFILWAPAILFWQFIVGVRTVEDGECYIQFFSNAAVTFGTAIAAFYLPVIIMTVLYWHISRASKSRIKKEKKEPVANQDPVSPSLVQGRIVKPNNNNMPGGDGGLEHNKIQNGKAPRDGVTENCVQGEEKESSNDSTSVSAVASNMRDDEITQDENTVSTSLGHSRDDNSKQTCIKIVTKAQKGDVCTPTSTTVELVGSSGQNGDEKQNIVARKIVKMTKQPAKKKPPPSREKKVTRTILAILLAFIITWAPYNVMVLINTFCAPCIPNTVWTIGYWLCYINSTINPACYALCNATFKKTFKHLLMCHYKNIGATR
Description: The affinity of (±)-4,9-dihydro-3-methyl-4-[(4-methyl-1-piperazinyl)-acetyl]-10H-thieno[3,4-b][1,5]benzodiazepin-10-one (telenzepine, compound 2 in Table 7) and its conformers [(+)-enantiomer=compound 1, (-)-enantiomer=compound 3] to muscarinic M1 (ganglionic type) and M2 (cardiac type) receptors was investigated by the following methods:
Electrically Stimulated Left Atrium of the Rat (Eltze et al., 1985, Europ. J. Pharmacol. 112, 211-224).
Isometric contractions (HSE force transducer, K-30; Watanabe Linear Corder Mark 5) of isolated, left atria of rats (male 250-350 g) were recorded in an organ bath (10 ml, Tyrode nutrient solution, 31° C., gassing with carbogen, initial tension of the organs 0.25 g) under electrical stimulation (HSE stimulator; hook-shaped Pt electrodes at the base of the bath and immersed, annular Pt electrodes 1 cm below the water surface of the bath; 7 V, 3 ms, 2 Hz). After an equilibration time of 30 minutes, cumulative dose/response curves of carbachol (10^-8 -10^-6 M, in the presence of the antagonist also up to 10^-5 or 10^-4 M) were recorded simultaneously on 4 organs in each case by the technique described by van Rossum (1963). The substance to be tested was added to the organ baths 20 minutes before application of the carbachol. The pauses between the individual dose/response curves were 30-45 minutes.
The Tyrode nutrient solution used had the following composition (mM): NaCl 130, KCl 2.0, CaCl2 ·2H2 O 1.8, MgCl2 ·6H2 O 0.98, NaHCO3 12.0, NaH2 PO4 0.42 and glucose monohydrate 5.6. pA2 values (-log of the molar dissociation constants of the competitive antagonist-receptor complex) were determined by linear regression using the Schild plot: pA2 =-log [B/(x-1)], (Arunlakshana and Schild, 1959).
Table 7 below gives pA2 values of the substances, for which the slope of the regression lines for theoretically competitive antagonism have been normalised to 1.00 (Tallarida et al., 1979).

Compound: Cc1scc2c1N(C(=O)CN1CCN(C)CC1)c1ccccc1NC2=O (racemic) [(±)-telenzepine, 4,9-dihydro-3-methyl-4-[(4-methyl-1-piperazinyl)-acetyl]-10H-thieno[3,4-b][1,5]benzodiazepin-10-one]
- Number of animals, latency period tripled (= protected) ([1]; 0.1 μmol/kg p.o.): 3 number of animals
- Number of animals, latency period tripled (= protected) ([1]; 0.3 μmol/kg p.o.): 5 number of animals
- Number of animals, latency period tripled (= protected) ([1]; 1 μmol/kg p.o.): 6 number of animals
- Number of animals, latency period tripled (= protected) ([1]; 3 μmol/kg p.o.): 7 number of animals
- Number of animals, latency period tripled (= protected) ([1]; 10 μmol/kg p.o.): 9 number of animals
- Number of animals, latency period tripled (= protected) ([1]; 30 μmol/kg p.o.): 10 number of animals
- ED50 ([1]; Cavia porcellus, po, 0.5 h, 95% Int. in brackets, read-out: approximate ED50 (at least tripling of latency period)): ~0.7 µmol/kg
- Kb (M2 receptor (cardiac)): 47.9 nM
